Experimental data published in BindingDB's records for doi:10.1021/jm00384a019 (1987).

Target: DNA polymerase alpha (Cricetulus griseus)
Test: Compound was evaluated for the concentration which gives half-maximal inhibition of Chinese Hamster Ovary DNA polymerase alpha

| SMILES | Ki [nM] |
| --- | --- |
| CCCCc1ccc(Nc2ncc3[nH]cnc3n2)cc1 [(4-Butyl-phenyl)-(9H-purin-2-yl)-amine] | 5000 |
| CCCCc1ccc(Nc2nc(SC)c3[nH]cnc3n2)cc1 [(4-Butyl-phenyl)-(6-methylsulfanyl-9H-purin-2-yl)-amine] | 1000 |
| CCCCc1ccc(Nc2nc(Cl)c3[nH]cnc3n2)cc1 [(4-Butyl-phenyl)-(6-chloro-9H-purin-2-yl)-amine] | 2600 |
| CCCCc1ccc(Nc2nc(OC)c3[nH]cnc3n2)cc1 [(4-Butyl-phenyl)-(6-methoxy-9H-purin-2-yl)-amine] | 1400 |
| CCCCc1ccc(Nc2nc(N)c3[nH]cnc3n2)cc1 [N*2*-(4-Butyl-phenyl)-9H-purine-2,6-diamine] | 14400 |
